Experimental data from paper PMC5391094, “Characterizing the anti-inflammatory and tissue protective actions of a novel Annexin A1 peptide” (PLoS ONE, 2017).
Where “and” joins values, the source holds several entries; their conditions need not be identical. Identical values can stand only once. Where no end group is shown, it is not given here.

Legend:
[1] = tested on: activated human neutrophils; assay: Neutrophil-mediated degradation (peptide remaining in incubations with activated human neutrophils); format: in vitro ADME; details: incubation with activated human neutrophils; compared to parent peptide CR-AnxA1_2-50; mean ± SEM of n = 4 distinct incubations
Description: Therefore, we designed a peptide that in addition to having a substitution of Valine25 to Leucine, which we previously found to confer resistance to proteinease-3 and neutrophil elastae, also lacked Alanines at positions 49 and 50 (Fig 1A).
Fig 1 CR-AnxA1_2-48 is resistant to neutrophil mediated cleavage and selectively binds the ALX receptor. (A) Aminoacid sequences for CR-AnxA1_2–50 and CR-AnxA1_2–48 (B) Plots depicting the amount of peptide remaining at the indicated intervals in incubations of human neutrophil with CR-AnxA1_2–50 or CR-AnxA1_2–48. Results are mean ± SEM of n = 4 distinct incubations with different neutrophil preparations. *p < 0.05 versus AnxA1_2–48 incubations. (C,D) Binding affinity of CR-AnxA1_2–48 to (C) human ALX-overexpressing and (D) FPR1-overexpressing HEK cells was assessed in a competitive binding assay using [^125I]–Ac2-26. (E) Agonist activity of CR-AnxA1_2–48 was investigated using β-arrestin stably expressing FPR2/ALX. Results for C-E are mean ± SEM of 3–4 independent experiments. TEXT PRINTED IN THE PICTURE: (C) CR-ANXA12-48: IC50= 20 nM

human ALX receptor = biological target: T1, human ALX receptor (Homo sapiens, UniProt P25090); assay: Competitive binding assay with [125I-Tyr]-Ac2-26 tracer on ALX-HEK transfected cells; details: HEK cells overexpressing human ALX, 1x10^6 cells/ml; tracer 50nM; peptide 0.1nM-10μM; 1h, 4°C; mean of 3-4 independent experiments; read-out: IC50, displacement of 125I labelled Ac2-26 from ALX receptor
T1 construct: expressed in transfected cells; host or cells: HEK cells
T1 sequence (P25090 1-351): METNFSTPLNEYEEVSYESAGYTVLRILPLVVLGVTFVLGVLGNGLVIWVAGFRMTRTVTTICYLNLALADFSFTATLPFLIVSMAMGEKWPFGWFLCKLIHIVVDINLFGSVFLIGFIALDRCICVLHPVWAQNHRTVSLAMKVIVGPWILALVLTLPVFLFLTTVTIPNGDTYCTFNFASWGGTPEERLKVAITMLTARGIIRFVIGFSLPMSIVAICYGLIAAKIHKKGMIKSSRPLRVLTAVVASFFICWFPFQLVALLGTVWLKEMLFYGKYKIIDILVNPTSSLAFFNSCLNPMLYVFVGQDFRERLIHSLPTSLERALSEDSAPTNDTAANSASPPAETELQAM
Description: Binding experiments were conducted as in [13]. Briefly FPR1-human embryonic kidney (HEK)–or ALX-HEK—transfected cells (1x10^6 cells/ml) were incubated with increasing concentrations of cold CR-AnxA1_2-50, CR-AnxA1_2-48 (0.1nM-10μM) or PBS and a fixed concentration (50nM) of [^125I-Tyr]-Ac2-26 for (1h, 4°C). Bound and unbound tracer were separated by filtration through Whatman GF/C glass microfibre filters (Kent, United Kingdom) using a vacuum manifold, and the amount of tracer bound to the cells was quantified by counting filters in a gamma-counter.

ALX = details: cited from earlier work
From the text: The ALX receptor is a G-protein coupled receptor that mediates the biological actions of a number of pro-resolving molecules including the essential fatty acid derived specialized pro-resolving mediators Resolvin D1, Resolvin D3 and Lipoxin A4 [32].

IC50 (human ALX receptor) | Substance | Resistance to neutrophil mediated cleavage (amount of peptide remaining) [1] | Binding affinity to ALX relative to FPR1 (ALX)
~20 nM and 20 nM | AMVSEFLKQAWFIENEEQEYVQTLKSSKGGPGSAVSPYPTFNPSSDV-NH2 [CR-AnxA1_2-48] | significant increase in resistance to neutrophil mediated cleavage | –
– | fMLF | – | about a log order lower
